# Assays:
# [1] = molecular target: A1061 23S rRNA MS screening construct; test: Mass-spec binding assay (SAR by MS, ESI-FTICR-MS); design: species or system E. coli
# Description: Binding affinity of test compounds to a 58 nucleotide fragment of E. coli 23S ribosomal RNA (23S rRNA) was determined using electrospray ionization Fourier transform ion cyclotron resonance mass spectrometry (ESI-FTICR-MS). The structure of the 23S rRNA fragment and its preparation is described by Conn et al (Science, 1999, 284(5417):1171) and Hinck et al (J. Mol. Biol., 1997, 274(1):101) both incorporated herein by reference. The mass spec assay determined the exact chemical composition of ligands that bound to the target rRNA and determined relative or absolute dissociation (KD) of ligands for the target. In the first step of the assay, a mixture of 23S rRNA target and test compound were moved from solution into the gas phase by electrospray ionization. The FT-ICR mass spectrometer served as a parallel set of “scales”, simultaneously measuring the exact molecular masses of the small molecules that bound to the RNA with great accuracy. The mass measurement error for an RNA-ligand complex weighing 10 kDa equals the mass of an electron. At this level of mass accuracy, each compound in the mixture was “labeled” by its molecular formula and exact molecular mass. […]
# [2] = tested on: E. coli S30 bacterial extract (protein synthesis); format: biochemical
# Description: Coupled Bacterial Transcription/Translation Assay. The DNA template, pBestLuc™ (Promega), is a plasmid containing a reporter gene for firefly luciferase fused to a strong tac promoter and ribosome binding site. Messenger RNA from 1 μg pBestLuc was transcribed and translated in E. coli S30 bacterial extract in the presence or absence of test compound. Compounds were tested in a black 96 well microtiter plate with an assay volume of 35 μL. Each test well contained: 5 μL test compound, 13 μL S30 premix (Promega), 4 μL 10× complete amino acid mix (1 mM each), 5 μL E. coli S30 extract and 8 μL of […] pBestLuc™. The transcription/translation reaction was incubated for 35 minutes at 37° C. followed by detection of functional luciferase with the addition of 30 μL LucLite™ (Packard). Light output was quantitated on a Packard TopCount.
# [3] = tested on: eukaryotic protein synthesis; test: Eukaryotic protein synthesis, cell-free assay; format: biochemical; settings: at 200:M
# Text: The biphenyl substitution improves in vitro antibacterial […] 4-fold compared to the phenyl substitution (34 versus 26). […] Biaryl 34 was selected to be evaluated against some additional bacterial strains. […] See Kung, P.-P.; Casper, M. D.; Cook, K. L.; Wilson-Lingardo, L.; Risen, L. M.; Vickers, T. A.; Ranken, R.; Blyn, L. B.; Wyatt, J. R.; Cook, P. D.; Ecker, D. J. J. Med. Chem. 1999, 42, 4705-4713.
# E. coli ATCC 25922 = test: Minimum inhibitory concentration (MIC), E. coli; format: cell-based, Escherichia coli
# Description: (§1) Bacterial Strains. The Streptococcus pyogenes strains, Klebsiella pneumoniae, Escherichia coli, Staphylococcus aureus, Enterococcus faecalis used in the antibacterial activity studies ATCC 14289, 49399, 13883, 25922, 13709, 29212, respectively, are obtained from the American Type Culture Collection, Rockville, Md. The strain E. coli imp— is a mutant strain of wild type E. coli with increased outer membrane permeability and was grown in LB broth at 37 °C. S. pyogenes strain is grown in Todd-Hewitt broth. S. aureus is grown in trypticase soy broth, E. faecalis in Todd-Hewitt broth, wild type E. coli and K. pneumoniae, in nutrient broth.
# (§2) Determination of Minimum Inhibitory Concentrations (MICs). The assays were carried out in […] volume in duplicate in 96-well clear flat-bottom plates. The bacterial suspension from an overnight culture growth in appropriate medium was added to a solution of test compound in 4% DMSO in water. Final bacterial inoculum was approximately 10^5-10^6 CFU/well. The percent growth of the bacteria in test wells relative to that observed for a well containing no compound was determined by measuring absorbance at 595 nm (A595) after 24 h. […] Both ampicillin and tetracycline is used as antibiotic-positive controls in each screening assay for S. pyogenes, E. coli imp-, E. coli, S. aureus, E. faecalis, K pneumoniae and P. vulgaris. Ciprofloxacin is used as an antibiotic positive control in each screening assay for P. aeruginosa.
# S. aureus ATCC 13709 = test: Minimum inhibitory concentration (MIC), S. aureus; format: cell-based, Staphylococcus aureus
# Description: as §1, §2
# S. pyogenes ATCC 49399 = test: MIC, Streptococcus pyogenes; format: cell-based
# Description: as §1
# as §2, with “Ciprofloxacin is used as an antibiotic positive control in each screening assay for P. aeruginosa.” left out
# E. faecalis ATCC 29212 = test: MIC, Enterococcus faecalis; format: cell-based
# Description: as §1
# as §2, with “Ciprofloxacin is used as an antibiotic positive control in each screening assay for P. aeruginosa.” left out
# P. vulgaris ATCC 8427 = test: MIC, Proteus vulgaris; format: cell-based
# Description: as §2
# K pneumoniae ATCC 13383 = test: MIC, Klebsiella pneumoniae; format: cell-based
# Description: as §1
# as §2, with “Ciprofloxacin is used as an antibiotic positive control in each screening assay for P. aeruginosa.” left out
# [4] = tested on: methicillin resistant S. aureus ATCC43300; test: MIC, methicillin-resistant S. aureus; format: cell-based, Staphylococcus aureus
# Description: as §2
structure (smiles),measurement,setting,value
NCC[C@@H](NC(=O)c1ccco1)C(=O)N1CCNCC1,Kd,[1],50 µM
CN(C)CCCOc1ccc(C(NC(=O)c2ccc(-c3cccc(NC(=O)c4ccc5[nH]c(=O)c(=O)[nH]c5c4)c3)o2)C(N)=O)cc1 (centres unmarked) [Compound 21],fold less potent than 12,[2]; versus 12,~3 fold
CN(C)CCCOc1ccc(C(NC(=O)c2ccc3[nH]c(=O)c(=O)[nH]c3c2)C(=O)N2CCNCC2)cc1 (centres unmarked) [Compound 22],activity in bacterial protein synthesis assay at 200:M,[2]; at 200:M,inactive
CN(C)CCCOc1ccc(C(NC(=O)c2ccc(-c3cccc(NC(=O)c4ccc(-c5ccccc5)cc4)c3)o2)C(=O)N2CCNCC2)cc1 (centres unmarked) [Compound 34],inhibition of eukaryotic protein synthesis,[3],not to inhibit
same,MIC E. coli,E. coli ATCC 25922; E. coli ATCC 25922,6-13 :M
same,MIC,"E. coli ATCC 25922; Escherichia coli, ATCC25922, 24 h, read-out: MIC (E. coli)",6 to 13 mM
same,MIC S. aureus,S. aureus ATCC 13709; S. aureus ATCC 13709,3-6 :M
same,MIC,"S. aureus ATCC 13709; Staphylococcus aureus, ATCC13709, 24 h, read-out: MIC (S. aureus)",6 to 13 mM
same,MIC Streptococcus pyogenes,S. pyogenes ATCC 49399,3-6 :M
same,MIC Enterococcus faecalis,E. faecalis ATCC 29212,3-6 :M
same,fold improvement compared to the phenyl substitution (26),[2]; 34 versus 26,4 fold
same,MIC Proteus vulgaris,P. vulgaris ATCC 8427,50-100 :M
same,MIC Klebsiella pneumoniae,K pneumoniae ATCC 13383,13-25 :M
same,MIC methicillin-resistant S. aureus strain,[4],13-25 :M

# Reference: patent US7432264B2, “Antimicrobial biaryl compounds” (Isis Pharmaceuticals, Inc., priority 2000, dated 2008)
